Experimental data as given in patent EP0545103A1, “Insecticidal, acaricidal and molluscicidal 1-(substituted) thioalkylpyrroles” (priority 1991, dated 1993).

Experiments:
Type in all cases: in vivo
Set-up in all cases: key: 0: no effect; 10-25% kill; 26-35% kill; 36-45% kill; 46-55% kill; 56-65% kill; 66-75% kill; 76-85% kill; 86-99% kill; 9: 100% kill
[1] = tested on: Heliothis virescens, egg, tobacco budworm; test: Tobacco budworm egg test, dipped cotton leaf and eggs; details: mortality rating after 3 days
Experimental: (§1) Test solutions are prepared by dissolving the test compound in a 35% acetone in water mixture to give a concentration of 10,000 ppm. Subsequent dilutions are made with water as needed.
Heliothis virescens, egg, tobacco budworm
A young cotton leaf about 6-7cm in length is dipped in an agitated test suspension for about 3 seconds. Eggs are collected on a cheesecloth and the cloth is cut into 10-20mm squares, each containing approximately 50-100 eggs which are 6-30 hours old. The egg-containing cheesecloth square is similarly dipped in a test suspension and placed on a treated cotton leaf. The combination is dried in a hood and then placed in an 8 ounce Dixie® cup #2168-ST (240ml volume, 6cm tall, 9.5cm top diameter, 8.0cm bottom diameter) into which a 5cm length of damp dental wick has been placed. The cup is covered with a clear plastic lid and held for 3 days, after which mortality counts are made.
(§2) All of the above tests are rated according to the rating scale shown below.

[2] = tested on: Spodoptera eridania, 3rd instar larvae, southern armyworm; test: Southern armyworm 3rd instar test, dipped limabean leaf; details: for ARMYWORM Day 3: rating at 3 days; for ARMYWORM Day 5: rating at 5 days
Experimental: as §1
Spodoptera eridania, 3rd instar larvae, southern armyworm
A Sieva limabean leaf expanded to 7-8 cm in length is dipped in the test solution with agitation for 3 seconds and allowed to dry in a hood. The leaf is then placed in a 100 x 10 mm petri dish containing a damp filterpaper on the bottom and ten 3rd instar caterpillars. At 3 and 5 days, observations are made of mortality, reduced feeding, or any interference with normal molting.
as §2

[3] = tested on: Spodoptera eridania, 3rd instar larvae, southern armyworm; test: Southern armyworm 7-day residual test; details: R designates Residual: 7-day residual foliage, concentration not given; for ARMYWORM Day 3 R: rating at 3 days; for ARMYWORM Day 5 R: rating at 5 days
Experimental: as §1
Spodoptera eridania, 3rd instar larvae, southern armyworm, 7-day residual
The limabean leaves treated in the above test are maintained under high intensity lamps in the greenhouse for 7 days. These lamps duplicate the effects of a bright sunny day in June in New Jersey and are kept on for 14 hour day length. After 7 days, the foliage is sampled and assayed as in the above-said test.
as §2

[4] = tested on: Spodoptera eridania, 3rd instar larvae, southern armyworm; test: Southern armyworm systemic uptake (stem systemic) test; details: cut stem in emulsion 3 days
Description: Spodoptera eridania, systemic uptake, 3rd instar larvae, southern armyworm
Subsequent 10-fold dilutions are made with water as needed. Sieva limabean plants, with the primary leaves expanded to a length of 7-8 cm, are cut off at least 3 cm above the soil level to avoid contamination with soil bacteria which will cause decay of the stem during the test. The cut stem is placed in the test emulsion and wrapped with a bit of cotton to hold the stem off the bottom of the bottle and to limit evaporation. The treated stem is thus maintained for 3 days at 27° C to allow the test compound to be taken up into the plant. Following this, one leaf is removed from the plant and placed in a 100 x 10 mm petri dish with 10 southern armyworms as described above. Mortality counts and observations of feeding damage are made 3 and 5 days later.
as §2

[5] = tested on: Diabrotic undecimpunctata howardi, 3rd instar southern corn rootworm; test: Southern corn rootworm soil test; details: mortality rating after 6 days
Experimental: Diabrotic undecimpunctata howardi, 3rd instar southern corn rootworm
One cc of fine talc is placed in a 30 mL wide-mouth screw-top glass jar. One mL of the appropriate acetone test solution is pipetted onto the talc so as to provide 1.25 and 0.25 mg of active ingredient per jar. The jars are set under a gentle air flow until the acetone is evaporated. The dried talc is loosened, 1 cc of millet seed is added to serve as food for the insects and 25 mL of moist soil is added to each jar. The jar is capped and the contents thoroughly mixed on a Vortex Mixer. Following this, ten 3rd instar rootworms are added to each jar and the jars are loosely capped to allow air exchange for the larvae. The treatments are held for 6 days when mortality counts are made. Missing larvae are presumed dead, since they decompose rapidly and can not be found. The concentrations used in this test correspond approximately to 50 and 10 kg/ha, respectively.
as §2

[6] = tested on: Heliothis virescens, 3rd instar tobacco budworm; test: Tobacco budworm 3rd instar test, dipped cotton cotyledons; details: mortality rating after 3 days
Experimental: as §1
Heliothis virescens, 3rd instar tobacco budworm
Cotton cotyledons are dipped in the test solution and allowed to dry in a hood. When dry, each is cut into quarters and ten sections are placed individually in 30 mL plastic medicine cups containing a 5-7mm long piece of damp dental wick. One 3rd instar caterpillar is added to each cup and the cup is sealed with MYLAR® film. Treatments are maintained for 3 days before a mortality count and observation of reduction in feeding damage are made.
as §2

Compound	TOBACCO BUDWORM Egg ([1]; 1000 ppm)	ARMYWORM Day 3 ([2]; 10 ppm)	ARMYWORM Day 5 ([2]; 10 ppm)	ARMYWORM Day 3 ([2]; 100 ppm)	ARMYWORM Day 5 ([2]; 100 ppm)	ARMYWORM Day 3 ([2]; 1000 ppm)	ARMYWORM Day 5 ([2]; 1000 ppm)	ARMYWORM Day 3 R [3]	ARMYWORM Day 5 R [3]	ARMYWORM Stem Sys [4]	SOUTHERN CORN ROOTWORM ([5]; 1 (ppm as headed))	SOUTHERN CORN ROOTWORM ([5]; 10 (ppm as headed))	SOUTHERN CORN ROOTWORM ([5]; 50 (ppm as headed))	TOBACCO BUDWORM 3rd Instar ([6]; 10 ppm)	TOBACCO BUDWORM 3rd Instar ([6]; 100 ppm)	TOBACCO BUDWORM 3rd Instar ([6]; 1000 ppm)	TOBACCO BUDWORM Egg ([1]; 100 ppm)	TOBACCO BUDWORM Egg ([1]; 300 ppm)
N#Cc1c(Br)c(C(F)(F)F)n(CS(=O)(=O)c2ccccc2)c1-c1ccc(Cl)cc1 [Example 46]	0	0	0	0	0	9 (100% kill)	9 (100% kill)	4 (46-55% kill)	9 (100% kill)	0	0	0	8 (86-99% kill)					
N#Cc1c(Br)c(C(F)(F)F)n(CSc2nc3ccccc3o2)c1-c1ccc(Cl)cc1 [Example 6]	0	0		9 (100% kill)		9 (100% kill)		9 (100% kill)	9 (100% kill)	0	0			0				
CCN(CC)C(=S)SCn1c(-c2ccc(Cl)cc2)c(C#N)c(Br)c1C(F)(F)F [Example 26]	0	9 (100% kill)	9 (100% kill)	9 (100% kill)	9 (100% kill)	9 (100% kill)	9 (100% kill)	9 (100% kill)	9 (100% kill)	0	0			9 (100% kill)	9 (100% kill)	9 (100% kill)		
CN(C)C(=S)SCn1c(Cl)c(Cl)c(C#N)c1-c1ccc(Cl)c(Cl)c1 [Example 32]	0	0	0					0	0	0			0		0	0		
CN(C)C(=S)SCn1c(Br)c(Br)c(C#N)c1Br [Example 31]	0	0	0	9 (100% kill)	9 (100% kill)	9 (100% kill)	9 (100% kill)	9 (100% kill)	9 (100% kill)	0			0			6 (66-75% kill)		
N#Cc1c(Br)c(C(F)(F)F)n(CSc2nc3ccccc3[nH]2)c1-c1ccc(Cl)cc1 [Example 9]	0			0	0	6 (66-75% kill)	7 (76-85% kill)	9 (100% kill)	9 (100% kill)	0			0		0	0		
CSCn1c(Br)c(Br)c(C#N)c1SC [Example 43]	0	0	0	0	0	9 (100% kill)	9 (100% kill)			0			0			0		
N#Cc1c(Br)c(Br)n(CSC(=N)N)c1Br [Example 20]	0	0	0	9 (100% kill)	9 (100% kill)	9 (100% kill)	9 (100% kill)	6 (66-75% kill)					0	0	0	9 (100% kill)	0	0
CC(C)OP(=S)(OC(C)C)SCn1c(-c2ccc(Cl)cc2)c(C#N)c(Br)c1C(F)(F)F [Example 27]	0	0	0	9 (100% kill)	9 (100% kill)	9 (100% kill)	9 (100% kill)	9 (100% kill)	9 (100% kill)	0	6 (66-75% kill)	7 (76-85% kill)	9 (100% kill)	0	7 (76-85% kill)	9 (100% kill)		
